Species: Rattus norvegicus
Assay: DrugMatrix - Regimen: Daily Repeat
Type: toxicity, organism-based, Sprague-Dawley
Set-up: regimen Daily Repeat, gender Male, age 6-8 weeks
Settings: in vivo, sc, route subcutaneous, […]; for ABSOLUTE BASOPHIL / ABSOLUTE EOSINOPHIL / ABSOLUTE LYMPHOCYTE / ABSOLUTE MONOCYTE / ABSOLUTE SEGMENTED NEUTROPHIL / BASOPHIL / EOSINOPHIL / ERYTHROCYTE COUNT / HEMATOCRIT / HEMOGLOBIN / LEUKOCYTE COUNT / LYMPHOCYTE / MEAN CORPUSCULAR HEMOGLOBIN / MEAN CORPUSCULAR HEMOGLOBIN CONCENTRATION / MEAN CORPUSCULAR VOLUME / MONOCYTE / NEUTROPHIL / NUCLEATED RED BLOOD CELLS / PLATELET COUNT: tissue Blood; for ALANINE AMINOTRANSFERASE / ALBUMIN / ALKALINE PHOSPHATASE / ASPARTATE AMINOTRANSFERASE / BLOOD UREA NITROGEN / CARBON DIOXIDE / CHLORIDE / CHOLESTEROL / CREATINE PHOSPHOKINASE / CREATININE / GLUCOSE / LACTATE DEHYDROGENASE / LIPASE / PHOSPHORUS / POTASSIUM / SODIUM / TOTAL BILIRUBIN / TOTAL PROTEIN / URIC ACID: tissue Plasma
[1] = 47.4 mg/kg, 72 h, dose level Low, time 3 day
[2] = 47.4 mg/kg, 120 h, dose level Low, time 5 day
[3] = 474 mg/kg, 72 h, dose level High, time 3 day
[4] = 474 mg/kg, 120 h, dose level High, time 5 day

Compound: O=C(O)C(Cl)(Cl)Cl [TRICHLOROACETIC ACID]
- ABSOLUTE BASOPHIL [1]: 0 CELLS/uL
- ABSOLUTE EOSINOPHIL [1]: 262.67 CELLS/uL
- ABSOLUTE LYMPHOCYTE [1]: 11309 CELLS/uL
- ABSOLUTE MONOCYTE [1]: 301 CELLS/uL
- ABSOLUTE SEGMENTED NEUTROPHIL [1]: 1027.33 CELLS/uL
- BASOPHIL [1]: 0%
- EOSINOPHIL [1]: 2%
- ERYTHROCYTE COUNT [1]: 5.38 x10E6/uL
- HEMATOCRIT [1]: 34.53%
- HEMOGLOBIN [1]: 12.9 G/DL
- LEUKOCYTE COUNT [1]: 12.9 x10E3/uL
- LYMPHOCYTE [1]: 87.67%
- MEAN CORPUSCULAR HEMOGLOBIN [1]: 24.07 pg
- MEAN CORPUSCULAR HEMOGLOBIN CONCENTRATION [1]: 37.33 G/DL
- MEAN CORPUSCULAR VOLUME [1]: 64.37 fL
- MONOCYTE [1]: 2.33%
- NEUTROPHIL [1]: 8%
- NUCLEATED RED BLOOD CELLS [1]: 0 /100WBC
- PLATELET COUNT [1]: 1349.67 x10E3/uL
- ALANINE AMINOTRANSFERASE [1]: 42.67 u/L
- ALBUMIN [1]: 4.2 G/DL
- ALKALINE PHOSPHATASE [1]: 412.67 u/L
- ASPARTATE AMINOTRANSFERASE [1]: 83.33 u/L
- BLOOD UREA NITROGEN [1]: 15.33 mg/dL
- CARBON DIOXIDE [1]: 25.67 mmol/L
- CHLORIDE [1]: 105.67 MEQ/L
- CHOLESTEROL [1]: 63 mg/dL
- CREATINE PHOSPHOKINASE [1]: 270.33 u/L
- CREATININE [1]: 0.23 mg/dL
- GLUCOSE [1]: 155.33 mg/dL
- LACTATE DEHYDROGENASE [1]: 325.67 u/L
- LIPASE [1]: 8.67 u/L
- PHOSPHORUS [1]: 12.73 mg/dL
- POTASSIUM [1]: 6.4 MEQ/L
- SODIUM [1]: 146.37 MEQ/L
- TOTAL BILIRUBIN [1]: 0.17 mg/dL
- TOTAL PROTEIN [1]: 5.3 G/DL
- URIC ACID [1]: 1.27 mg/dL
- ABSOLUTE BASOPHIL [2]: 0 CELLS/uL
- ABSOLUTE EOSINOPHIL [2]: 0 CELLS/uL
- ABSOLUTE LYMPHOCYTE [2]: 12836 CELLS/uL
- ABSOLUTE MONOCYTE [2]: 332 CELLS/uL
- ABSOLUTE SEGMENTED NEUTROPHIL [2]: 898.67 CELLS/uL
- BASOPHIL [2]: 0%
- EOSINOPHIL [2]: 0%
- ERYTHROCYTE COUNT [2]: 5.4 x10E6/uL
- HEMATOCRIT [2]: 33.93%
- HEMOGLOBIN [2]: 12.87 G/DL
- LEUKOCYTE COUNT [2]: 14.07 x10E3/uL
- LYMPHOCYTE [2]: 91.33%
- MEAN CORPUSCULAR HEMOGLOBIN [2]: 23.87 pg
- MEAN CORPUSCULAR HEMOGLOBIN CONCENTRATION [2]: 37.93 G/DL
- MEAN CORPUSCULAR VOLUME [2]: 62.87 fL
- MONOCYTE [2]: 2.33%
- NEUTROPHIL [2]: 6.33%
- NUCLEATED RED BLOOD CELLS [2]: 0 /100WBC
- PLATELET COUNT [2]: 1378 x10E3/uL
- ALANINE AMINOTRANSFERASE [2]: 40 u/L
- ALBUMIN [2]: 4.2 G/DL
- ALKALINE PHOSPHATASE [2]: 302.67 u/L
- ASPARTATE AMINOTRANSFERASE [2]: 75.33 u/L
- BLOOD UREA NITROGEN [2]: 20 mg/dL
- CARBON DIOXIDE [2]: 28.33 mmol/L
- CHLORIDE [2]: 105.67 MEQ/L
- CHOLESTEROL [2]: 66.33 mg/dL
- CREATINE PHOSPHOKINASE [2]: 164.33 u/L
- CREATININE [2]: 0.19 mg/dL
- GLUCOSE [2]: 166.33 mg/dL
- LACTATE DEHYDROGENASE [2]: 114 u/L
- LIPASE [2]: 8 u/L
- PHOSPHORUS [2]: 13.1 mg/dL
- POTASSIUM [2]: 6.29 MEQ/L
- SODIUM [2]: 148.4 MEQ/L
- TOTAL BILIRUBIN [2]: 0.17 mg/dL
- TOTAL PROTEIN [2]: 5.63 G/DL
- URIC ACID [2]: 1.6 mg/dL
- ABSOLUTE BASOPHIL [3]: 0 CELLS/uL
- ABSOLUTE EOSINOPHIL [3]: 47.33 CELLS/uL
- ABSOLUTE LYMPHOCYTE [3]: 16441.33 CELLS/uL
- ABSOLUTE MONOCYTE [3]: 452 CELLS/uL
- ABSOLUTE SEGMENTED NEUTROPHIL [3]: 2492.67 CELLS/uL
- BASOPHIL [3]: 0%
- EOSINOPHIL [3]: 0.33%
- ERYTHROCYTE COUNT [3]: 4.84 x10E6/uL
- HEMATOCRIT [3]: 30.03%
- HEMOGLOBIN [3]: 11.4 G/DL
- LEUKOCYTE COUNT [3]: 19.43 x10E3/uL
- LYMPHOCYTE [3]: 85%
- MEAN CORPUSCULAR HEMOGLOBIN [3]: 23.57 pg
- MEAN CORPUSCULAR HEMOGLOBIN CONCENTRATION [3]: 38.03 G/DL
- MEAN CORPUSCULAR VOLUME [3]: 62.03 fL
- MONOCYTE [3]: 2.33%
- NEUTROPHIL [3]: 12.33%
- NUCLEATED RED BLOOD CELLS [3]: 0.33 /100WBC
- PLATELET COUNT [3]: 1335.33 x10E3/uL
- ALANINE AMINOTRANSFERASE [3]: 56.33 u/L
- ALBUMIN [3]: 3.77 G/DL
- ALKALINE PHOSPHATASE [3]: 300.33 u/L
- ASPARTATE AMINOTRANSFERASE [3]: 95 u/L
- BLOOD UREA NITROGEN [3]: 18.33 mg/dL
- CARBON DIOXIDE [3]: 24.33 mmol/L
- CHLORIDE [3]: 105 MEQ/L
- CHOLESTEROL [3]: 68.67 mg/dL
- CREATINE PHOSPHOKINASE [3]: 418.33 u/L
- CREATININE [3]: 0.19 mg/dL
- GLUCOSE [3]: 142.67 mg/dL
- LACTATE DEHYDROGENASE [3]: 520.33 u/L
- LIPASE [3]: 7.67 u/L
- PHOSPHORUS [3]: 12.23 mg/dL
- POTASSIUM [3]: 6.31 MEQ/L
- SODIUM [3]: 146.47 MEQ/L
- TOTAL BILIRUBIN [3]: 0.2 mg/dL
- TOTAL PROTEIN [3]: 5.27 G/DL
- URIC ACID [3]: 1.37 mg/dL
- ABSOLUTE BASOPHIL [4]: 0 CELLS/uL
- ABSOLUTE EOSINOPHIL [4]: 102 CELLS/uL
- ABSOLUTE LYMPHOCYTE [4]: 13327 CELLS/uL
- ABSOLUTE MONOCYTE [4]: 456.67 CELLS/uL
- ABSOLUTE SEGMENTED NEUTROPHIL [4]: 2747.67 CELLS/uL
- BASOPHIL [4]: 0%
- EOSINOPHIL [4]: 0.67%
- ERYTHROCYTE COUNT [4]: 5.19 x10E6/uL
- HEMATOCRIT [4]: 33.1%
- HEMOGLOBIN [4]: 12.5 G/DL
- LEUKOCYTE COUNT [4]: 16.63 x10E3/uL
- LYMPHOCYTE [4]: 80%
- MEAN CORPUSCULAR HEMOGLOBIN [4]: 24.07 pg
- MEAN CORPUSCULAR HEMOGLOBIN CONCENTRATION [4]: 37.77 G/DL
- MEAN CORPUSCULAR VOLUME [4]: 63.73 fL
- MONOCYTE [4]: 2.67%
- NEUTROPHIL [4]: 16.67%
- NUCLEATED RED BLOOD CELLS [4]: 0 /100WBC
- PLATELET COUNT [4]: 1546 x10E3/uL
- ALANINE AMINOTRANSFERASE [4]: 55 u/L
- ALBUMIN [4]: 3.33 G/DL
- ALKALINE PHOSPHATASE [4]: 217 u/L
- ASPARTATE AMINOTRANSFERASE [4]: 111.33 u/L
- BLOOD UREA NITROGEN [4]: 13.67 mg/dL
- CARBON DIOXIDE [4]: 23 mmol/L
- CHLORIDE [4]: 109.33 MEQ/L
- CHOLESTEROL [4]: 66 mg/dL
- CREATINE PHOSPHOKINASE [4]: 1000 u/L
- CREATININE [4]: 0.19 mg/dL
- GLUCOSE [4]: 170 mg/dL
- LACTATE DEHYDROGENASE [4]: 160 u/L
- LIPASE [4]: 8 u/L
- PHOSPHORUS [4]: 12.67 mg/dL
- POTASSIUM [4]: 6.26 MEQ/L
- SODIUM [4]: 147.7 MEQ/L
- TOTAL BILIRUBIN [4]: 0.17 mg/dL
- TOTAL PROTEIN [4]: 5.03 G/DL
- URIC ACID [4]: 2.6 mg/dL

From ChEMBL document CHEMBL3885881, “DrugMatrix”
